# Source: article PMC11732138, “Gold complex compounds that inhibit drug-resistant Staphylococcus aureus by targeting thioredoxin reductase” (Frontiers in Antibiotics, 2023)
# Where two headings read alike, the source gives them in different places.
# Key:
# [1] = tested on: human primary hepatocytes; assay: Human primary hepatocytes toxicity; assay type: cell-based; settings: 24 h, WST1
# Experimental: Human primary hepatocytes toxicity. Cryopreserved human primary hepatocytes were purchased from the Cell Resource Core at Massachusetts General Hospital (Boston, MA, USA). Collagen sandwiched configuration was used to culture the thawed cells in 24-well plates. The 24-well plates were coated with rat tail collagen type I (Cell Recourse Core, MGH) and incubated for an hour before 4 x 10^5 live cells were plated and incubated at 37°C with 5% CO2 for 1 h to allow cells to attach to the collagen gel. After incubation, the medium was removed along with dead cells, and the remaining cells received 0.5 mL of hepatocyte culture medium containing Dulbecco’s modified Eagle’s medium (DMEM) media supplemented with 10% FBS, 0.5 U/mL insulin, 14 ng/mL glucagon, 20 ng/mL EGF, 7.5 µg/mL hydrocortisone and 200 U/mL penicillin-streptomycin. The cell cultures were incubated in a humidified, 5% CO2 incubator at 37°C. After 24 h, a top layer of collagen gel was poured over the hepatocytes attached to collagen on the bottom of the plate, making a sandwich model. After 1 h, investigational compounds at the designated concentrations were added and incubated for 24 h. Post incubation, hepatocyte WST1 (Roche, Basel, Switzerland) was added and incubated for 4 h. Cell staining was measured by recording the absorbance at 420 nm, measured using a Vmax microplate reader (Molecular Devices, San Jose, CA, USA.), and data were plotted using GraphPad Prism. Cells were tested in triplicate.
# S. aureus MW2 [2] = assay: Time to kill assay; assay type: cell-based, Staphylococcus aureus; settings: 4 × MIC, 4 h; bactericidal = 3-log10-CFU/mL reduction
# Experimental: S. aureus MW2, a methicillin-resistant S. aureus (MRSA) isolate, was used to determine the bacteriostatic/bactericidal properties of test compounds, as previously described ([Rajamuthiah et al., 2015]). Assays were carried out as 2 biological replicates with n=3 for each in 24 well plates (BD Biosciences, Franklin Lakes, NJ, USA). Briefly, S. aureus MW2 cells were streaked on TSB agar from a frozen glycerol stock, and after overnight incubation, a single colony was inoculated on 2 mL of TSB and incubated at 37°C with agitation. The overnight culture of S. aureus MW2 was centrifuged at 4000 g for 5 min and then washed twice with PBS and collected through centrifuged at 4000 g for 5 min. The PBS was discarded and cells were suspended in TSB and aliquoted into a 24-well plate at a density of 10^8 cells/mL as a 1 mL volume. Test compounds were added such that the final concentration was 4 × MIC, and the cultures were incubated at 37°C with agitation. At designated time intervals, 5 μL aliquots from each test condition were serially diluted in TSB and plated onto TSA (BD Biosciences, Franklin Lakes, NJ, USA). CFUs were enumerated after overnight incubation at 35°C, and data were plotted using GraphPad Prism 9.0 (San Diego, CA, USA) to report the means and standard deviation of growth as measured by CFU/mL.
# [3] = Immortalized cell line toxicity (WST-1), the three cell lines together; assay type: cell-based; settings: human, hkc, hepg2, a549 cells; read-out: toxicity to cell lines as multiple of the MIC
# Experimental: (§1) A hepatic cell line (HepG2), lung carcinoma cell line (A549), and kidney cell line (HKC) were used to test the cytotoxicity of investigational compounds. Cells were grown in DMEM (ThermoFisher Scientific, Waltham, MA, USA) supplemented with 10% fetal bovine serum (FBS) (ThermoFisher Scientific, Waltham, MA, USA) and 1% penicillin/streptomycin (ThermoFisher Scientific, Waltham, MA, USA) and maintained at 37°C in 5% CO2. 2.5x10^4 cells in 100 μL of DMEM with 10% FBS were added to wells of 96-well plates 24 h prior to the experiments. Compounds were serially diluted in […], and 100 μL antibiotic-free DMEM was added to the monolayer and incubated at 37°C in 5% CO2 for 24 h. At 2 h before the end of the incubation period, 10 μL of 2-(4-iodophenyl)-3-(4-nitrophenyl)-5-(2, 4-disulfophenyl)-2H-tetrazolium (WST-1) solution (Roche, Mannheim, Germany) was added to each well. WST-1 reduction was monitored at 450 nm using a Vmax microplate reader. Assays were performed in triplicate, and the percentage survival was calculated by comparing the compound-treated wells to the DMSO vehicle control wells.
# [4] = tested on: renal proximal tubule epithelial cells; assay: Renal proximal tubule epithelial cell toxicity; assay type: cell-based, human; settings: renal proximal tubule epithelial cells
# human erythrocytes = settings: tested range 256 to 0.125 μg/mL
# Experimental: The plate was incubated for 1h at 37°C. After incubation, the plate was centrifuged at 1000 g for 5 min. Then, 100 µL of supernatant was transferred to a fresh 96-well microtiter well plate and the OD was measured at 540 nm. The assay was conducted in triplicate and the mean and SD values were reported.
# [5] = Compound solubility in PBS; assay type: physicochemical; settings: aqueous buffer
# Experimental: Compound solubility in PBS. Compound solubility was measured in PBS. Briefly, serial dilutions of test compounds were prepared in DMSO at 100x the final concentration. Test compound solutions were diluted 100-fold into PBS in a 96-well plate and mixed. After 2 h, the presence of precipitate was detected by measuring absorbance at 540 nm.
# hERG channel [6] = target: T1, hERG channel (Homo sapiens, UniProt Q12809); assay: hERG measurement (QPatch HTX patch clamp)
# Source text: (§4) QPatch HTX system (Sophion Biosciences A/S, Ballerup, Denmark) was used to examine hERG signaling (Cyprotex, Watertown, MA, USA). The system was primed with appropriate extracellular (NaCl, KCl, CaCl2, MgCl2, D-glucose, HEPES, pH 7.4) and intracellular (KCl, MgCl2, EGTA, MgATP, HEPES, pH 7.2) solutions before conducting the study in a 48 well plate (QPlate, Sophion Biosciences A/S, Ballerup, Denmark). All cell suspensions, buffers, and test compound solutions were kept at room temperature during the experiment. HEK293 cells stably transfected with hERG cDNA were washed and positioned into each well (recording chamber) of the QPlate. The QPatch system follows the general principles of conventional whole-cell patch-clamping: a high resistance seal is formed between the patch electrode, and an individual cell, the membrane across the electrode tip is then ruptured, and the whole-cell patch-clamp configuration is established. The standard voltage profile was as follows: step from -80 mV to –50 mV for 200 ms, +20 mV for 4.8 s, step to -50 mV for 5 s, then stepped to the holding potential of -80 mV. The step from -80 mV to the test command (+20 mV) results in an outward current (i.e., current flows out of the cell), and the step from the test command (+20 mV) to -50 mV results in the tail current (the tail current represents deactivation of the current overtime). Compound dilutions were prepared by diluting a DMSO solution (default 10 mM), followed by dilution into an extracellular buffer such that the final concentrations tested were 0.1, 1, and 10 μM (final DMSO concentration 0.1%). Perfusion solutions contained 0.05% Pluronic F-68 and were stored at room temperature for the duration of the experiment each day. The voltage protocol was run and recorded continuously during the experiment. Cells were treated with a vehicle for 3 min (i.e., 0.1% DMSO) followed by three increasing test substance concentrations (0.1, 1, and 10 μM). The test compounds were applied in triplicate at each concentration and tested in at least 2 cells (biological replicates). […]
# HepG2 cells = assay: Immortalized cell line toxicity (WST-1), HepG2; assay type: cell-based, human; settings: HepG2 liver cell line, 24 h
# Experimental: as §1
# A549 cells = assay: Immortalized cell line toxicity (WST-1), A549; assay type: cell-based, human; settings: A549 lung carcinoma cell line, 24 h
# Experimental: as §1
# S. aureus TrxR = S. aureus TrxR (Staphylococcus aureus, UniProt P66011); assay: TrxR (TrxB) enzymatic assay, DTNB to TNB conversion
# Experimental: TrxR specific inhibitory activity was evaluated using 40 μL of S. aureus TrxR enzyme (0.5 μg/μL) per 200 mL of the reaction mixture for 15 minutes, comparing auranofin to other sulfur-containing compounds (all tested at 10 μg/mL), including known anti-S. aureus compounds.
# For the screening assay, diluted TrxR assay buffer (Cayman Chemical, Ann Arbor, MI) (100 μL) was mixed with the investigational compounds (20 μL) in a 96 well-plate format and combined with Sa-TrxB (40 μL; 0.5 μg/mL), DTNB (20 μL) and NADPH (20 μL). The reaction entailed combining NADPH and Sa-TrxB with DTNB, which was converted to TNB, producing a yellow color.
# [7] = Compound solubility in DMSO; assay type: physicochemical; settings: organic solvent or mixture, turbidity at 540 nm, read-out: concentration up to which the compound remained soluble in DMSO
# Experimental: To test compound solubility, stock solutions were made in triplicate at 50 mg/mL in DMSO. Two-fold serial dilutions of the test compounds were prepared at 50 μL volume in a 96-well assay plate and were kept in the incubator for 1 h. After incubation, the absorbance was measured at 540 nm using a Vmax microplate reader (Molecular Devices, Sunnyvale, CA, USA.) to detect turbidity.
# HKC cells = assay: Immortalized cell line toxicity (WST-1), HKC; assay type: cell-based, human; settings: HKC kidney cell line, 24 h
# Experimental: as §1
# S. aureus MW2 [8] = assay: Broth microdilution MIC, S. aureus MW2; assay type: cell-based, Staphylococcus aureus; settings: S. aureus MW2 (MRSA), broth microdilution, 18 h
# Experimental: (§2) In vitro antibiotic susceptibilities were determined using the broth microdilution assay established by the Clinical and Laboratory Standards Institute ([Clinical and Laboratory Standards Institute, 2012]). Broth microdilution assays were carried out with 2 biological replicates, each in triplicate, Mueller–Hinton broth (MHB; BD Biosciences, Franklin Lakes, NJ, USA) with a total assay volume of 100 μL in 96-well plates (BD Biosciences, Franklin Lakes, NJ, USA). Two-fold serial dilutions of compounds were prepared at a range of 0.01– 64 μg/mL in 50 μL of MHB. The initial bacterial inoculum was adjusted to OD600 0.06, 50 μL was, added to the test compounds, and then incubated at 35°C for 18 h. Post incubation, OD600 was measured using a Vmax microplate reader (Molecular Devices, San Jose, CA), and the lowest concentration of test compound that suppressed bacterial growth was reported as the MIC. Broth culture from the MIC assay (10 μL) was plated on Mueller–Hinton agar (BD Biosciences, Franklin Lakes, NJ, USA), and colony-forming units (CFUs) were enumerated after overnight incubation at 37°C.
# K. pneumoniae ATCC 77326 = assay: Broth microdilution MIC, K. pneumoniae; assay type: cell-based, Klebsiella pneumonia; settings: K. pneumoniae ATCC 77326
# Experimental: as §2
# E. faecium ATCC E007 = assay: Broth microdilution MIC, E. faecium; assay type: cell-based, Enterococcus faecium; settings: E. faecium ATCC E007
# Experimental: as §2
# P. aeruginosa PA14 = assay: Broth microdilution MIC, P. aeruginosa; assay type: cell-based, Pseudomonas aeruginosa; settings: P. aeruginosa PA14
# Experimental: as §2
# S. aureus MW2 [9] = assay: Diamide assay (CFU reduction); assay type: cell-based, Staphylococcus aureus; settings: compound 0.5 μg/mL + 5 mM diamide, 3 h
# Experimental: An overnight culture of S. aureus MW2 was inoculated in tryptic soy broth (TSB) media and grown with agitation. The cells were centrifuged, washed with PBS, and diluted to an OD600 0.4 (10^8 CFU/mL) in PBS. The cells were then treated with auranofin (0.5 µg/mL), AU1 (0.5 µg/mL), AU5 (0.5 µg/mL), and diamide (5 mM and 10 mM) alone or in combinations for 3 h at 37°C. The cells were then serially diluted and plated on tryptic soy agar (TSA) media and incubated at 37°C for 24 h. Colonies that grew on plates were enumerated to determine the effect of the drug and diamide on S. aureus.
# [10] = design: method as in Kean et al., 1997; settings: auranofin-treated patients ref Kean et al., 1997; cited from earlier work
# Enterobacter (EAE 2625) = assay: Broth microdilution MIC, Enterobacter; assay type: cell-based, Enterobacter spp.; settings: Enterobacter (EAE 2625)
# Experimental: as §2
# [11] = tested on: intracellular free thiols of S. aureus MW2; assay: Thiol depletion assay; assay type: cell-based, Staphylococcus aureus; settings: treated vs untreated cell lysate
# Experimental: S. aureus MW2 was treated for 15 min with the indicated (0.125, 0.25, 0.5, or 0.75 µg/mL) concentrations of auranofin, AU1, AU5, or ampicillin. After treatment bacteria were washed twice in PBS and then resuspended in 100 mM potassium phosphate, monobasic, pH 7.4, containing 1 mM ethylenediaminetetraacetic acid to promote lysis. Cells were incubated in the lysis solution for 30 min at 60°C and then vortexed briefly. The solution was centrifuged at 13,000 g for 10 min to collect cell debris. Lysate was collected and 50 μL was transferred to a 96-well plate. Thiols were quantified using the Fluorometric Thiol assay kit following the manufacturer’s instructions (Millipore Sigma, St. Louis, MO, USA). The fluorescence intensity was measured after a 30 min incubation time at λex = 490/λem = 535 nm using a Vmax plate reader.
# hERG channel [12] = target: T1, hERG channel
# Source text: as §4
# [13] = tested on: S. aureus MW2 biofilm formation; assay: Biofilm formation inhibition; assay type: cell-based, Staphylococcus aureus; settings: 24 h, Alamar Blue
# Experimental: (§3) Diluted bacterial cells were added to 100 μL of test compounds (serially diluted 16 to 0 μg/mL) and incubated for 24 h to assess the biofilm formation inhibition. For the disruption of matured biofilm, diluted cells in 100 μL were added to the 96-well plate and incubated for 24 h with no agitation. […] Biofilm assays were completed in triplicate.
# A. baumannii 17978 = assay: Broth microdilution MIC, A. baumannii; assay type: cell-based, Acinetobacter baumannii; settings: A. baumannii 17978
# Experimental: as §2
# H. pylori 49503 = assay: Broth microdilution MIC, H. pylori; assay type: cell-based, Helicobacter pylori; settings: H. pylori 49503
# Experimental: as §2
# mature S. aureus biofilm = assay: Disruption of mature biofilm; assay type: cell-based, Staphylococcus aureus; settings: preformed 24 h biofilm, Alamar Blue
# Experimental: as §3
# Sequence of S. aureus TrxR (P66011 whole entry): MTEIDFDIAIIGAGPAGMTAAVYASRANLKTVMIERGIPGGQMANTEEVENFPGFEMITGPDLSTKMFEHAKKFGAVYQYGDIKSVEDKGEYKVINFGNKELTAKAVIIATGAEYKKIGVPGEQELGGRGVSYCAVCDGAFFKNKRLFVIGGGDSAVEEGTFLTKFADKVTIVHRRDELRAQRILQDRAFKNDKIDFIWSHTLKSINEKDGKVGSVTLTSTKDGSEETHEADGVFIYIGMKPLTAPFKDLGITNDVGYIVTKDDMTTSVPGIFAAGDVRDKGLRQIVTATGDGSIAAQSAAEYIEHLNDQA
# T1 sequence (Q12809 whole entry): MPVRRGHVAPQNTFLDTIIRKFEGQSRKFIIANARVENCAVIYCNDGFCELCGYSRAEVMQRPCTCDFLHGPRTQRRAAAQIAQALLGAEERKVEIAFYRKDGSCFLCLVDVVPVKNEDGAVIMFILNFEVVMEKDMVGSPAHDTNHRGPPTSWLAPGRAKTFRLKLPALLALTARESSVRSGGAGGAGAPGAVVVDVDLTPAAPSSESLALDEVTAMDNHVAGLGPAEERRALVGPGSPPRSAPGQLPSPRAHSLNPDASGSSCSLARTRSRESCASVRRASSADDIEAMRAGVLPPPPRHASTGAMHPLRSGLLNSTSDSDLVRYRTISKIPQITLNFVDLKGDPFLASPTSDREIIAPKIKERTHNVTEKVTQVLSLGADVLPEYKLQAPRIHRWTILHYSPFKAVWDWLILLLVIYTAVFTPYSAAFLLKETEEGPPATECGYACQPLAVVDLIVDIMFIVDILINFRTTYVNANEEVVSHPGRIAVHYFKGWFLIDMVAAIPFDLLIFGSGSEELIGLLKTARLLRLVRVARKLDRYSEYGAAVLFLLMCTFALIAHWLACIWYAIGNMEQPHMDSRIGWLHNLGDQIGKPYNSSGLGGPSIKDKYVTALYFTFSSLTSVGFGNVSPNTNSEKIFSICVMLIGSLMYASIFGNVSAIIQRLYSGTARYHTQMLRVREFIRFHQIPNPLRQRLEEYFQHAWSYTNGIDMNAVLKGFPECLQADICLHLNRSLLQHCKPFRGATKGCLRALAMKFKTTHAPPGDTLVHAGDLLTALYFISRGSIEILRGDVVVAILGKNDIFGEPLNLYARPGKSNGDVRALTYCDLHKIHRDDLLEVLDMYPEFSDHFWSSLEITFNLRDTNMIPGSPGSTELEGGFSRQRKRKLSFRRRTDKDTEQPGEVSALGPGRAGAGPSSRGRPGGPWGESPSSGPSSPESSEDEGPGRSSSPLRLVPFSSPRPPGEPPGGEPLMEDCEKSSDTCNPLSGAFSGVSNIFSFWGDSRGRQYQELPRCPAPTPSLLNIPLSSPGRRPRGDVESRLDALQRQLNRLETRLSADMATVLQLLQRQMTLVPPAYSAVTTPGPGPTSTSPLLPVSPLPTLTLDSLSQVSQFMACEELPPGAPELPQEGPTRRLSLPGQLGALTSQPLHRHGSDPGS
compound,measurement,setting,value
CC(C)(C)c1ccc([S-])cc1.CCP(CC)CC.[Au+] [AU1],LD50,[1],approximately 3 μg/mL
same,bactericidal versus bacteriostatic nature (time-to-kill kinetics),S. aureus MW2 [2],bacteriostatic
same,selectivity ratio at 24 h,[3],16 to 32
same,LD50,[4],1.5 µg/mL
same,LD50 as multiple of the MIC,[4],12 X MIC
same,hemolysis (in words),human erythrocytes,did not cause hemolysis within the tested range
same,solubility at 2 h,"[5]; PBS, 2 Hour, highest concentration with no detectable precipitate, read-out: Solubility Limit",3.13 µM
same,solubility at 2 h,"[5]; pbs, read-out: Solubility in PBS converted to mass concentration",1.49 µg/mL
same,IC50,hERG channel [6],> 10 µM
same,LD50,HepG2 cells,approximately 3 μg/mL
same,LD50,A549 cells,approximately 4 μg/mL
same,IC50,S. aureus TrxR,0.5 µM
same,solubility at 1 h,[7],≥ 50 µg/mL
same,LD50,HKC cells,< 2 µg/mL
CC(=O)OC[C@H]1O[C@@H]([S-])[C@H](OC(C)=O)[C@@H](OC(C)=O)[C@@H]1OC(C)=O.CCP(CC)CC.[Au+] [Auranofin],MIC,S. aureus MW2 [8],0.25 µg/mL
same,LD50,[1],approximately 8 μg/mL
same,MIC,K. pneumoniae ATCC 77326,>32 µg/mL
same,MIC,E. faecium ATCC E007,0.5 µg/mL
same,LD50 as multiple of the MIC,[4],6 X MIC
same,MIC,P. aeruginosa PA14,>32 µg/mL
same,log CFU reduction in combination with diamide,S. aureus MW2 [9],2.1 log CFU
same,patients with proteinuria,[10],5%
same,MIC,Enterobacter (EAE 2625),>32 µg/mL
same,impact on free thiols (in words),[11],a reduction was observed
same,IC50,hERG channel [12],9.68 µM
same,TrxR enzymatic inhibitory activity (in words),S. aureus TrxR; DTNB to TNB conversion,Measurable activity reduction
same,OD420 in TrxR enzymatic assay,"S. aureus TrxR; subscreen, after a 30 min incubation period, DMSO 0.483 ± 0.121",0.295 ± 0.012
same,concentration that inhibited biofilm formation (P<0.01),[13],0.125 µg/mL
same,MIC,A. baumannii 17978,32 µg/mL
same,MIC,H. pylori 49503,0.25 µg/mL
same,concentration that significantly reduced mature biofilm,mature S. aureus biofilm,0.125 µg/mL
